Test results: PMC11314621, “Cheminformatics-Guided Exploration of Synthetic Marine Natural Product-Inspired Brominated Indole-3-Glyoxylamides and Their Potentials for Drug Discovery” (Molecules, 2024)
Where two headings read alike, the source gives them in different places.

Tests used:
protein kinase C = settings: ref [15]; cited from earlier work
α-synuclein = target: T1, α-synuclein (Homo sapiens, UniProt P37840); experiment: In vitro α-synuclein affinity MS-binding assay; settings: 3 h incubation, 5:1 molar ratio, (+)-HRESIMS
T1 construct: α-synuclein protein solutions (10 μM) were prepared in 10 mM ammonium acetate
Method: The synthetic indoles were incubated with α-syn for 3 h at a 5:1 molar ratio, after which a (+)- mode high-resolution MS spectrum was acquired.
α-synuclein protein solutions (10 μM) were prepared in 10 mM ammonium acetate. Synthetic IGAs 25, 26, 34, 41, 45, 46, 51, and 52 (100 μM) were dissolved in 100% MeOH and incubated with α-syn at room temperature for 3 h. Protein-ligand interactions were analysed using (+) HRESIMS calibrated with sodium trifluoroacetate (0.1 mg/mL) with the following parameters: nebuliser 2.0 Bar; dry gas 7 L/min; dry temp 150 °C; funnel I RF 400 Vpp; end plate offset 500 V; capillary 4500 V; ISCID 0.0 ev; ion energy 4.0 eV; transfer time 100 μs; multipole RF 800 Vpp; collision RF 1200 Vpp; prepulse storage 10 μs; spectra rate: 2 × 100 Hz. The resulting spectra were analysed for additional peaks representing complexes formed between α-syn and active compounds.

SARS-CoV-2 3CLpro [1] = target: T2, SARS-CoV-2 3CLpro (Severe acute respiratory syndrome coronavirus 2, UniProt P0DTD1); experiment: biochemical
T2 construct: Each well contained 25 nM of SARS-CoV-2 3CL^Pro and eCFP-Venus biosensor (500 nM)

[2] = target: T3, porcine pancreatic elastase (Sus scrofa, UniProt P00772); experiment: Serine protease assay, elastase; type: biochemical; settings: remaining enzyme activity
T3 construct: high-purity porcine pancreatic elastase (Sigma, Melbourne, Victoria, Australia, E0258); purchased Sigma E0258
Method: (§1) Serine protease-inhibitory activities for 25–56 were determined in 96 well plates. Each inhibitor was initially tested in duplicate against elastase and chymotrypsin at 10 µM. […] Assays for the inhibition of elastase were undertaken using high-purity porcine pancreatic elastase (Sigma, Melbourne, Victoria, Australia, E0258) in an assay buffer of 50 mM Tris-HCl (pH 8.0) at room temperature. Dilutions of each inhibitor (originally resuspended in DMSO) were prepared in triplicate and then preincubated with 375 ng of elastase for 15 min at room temperature in a total reaction volume of 85 µL. Following this preincubation, 15 µL of 2 mM N-succinyl-Ala-Ala-Ala-p-nitroanilide (Sigma, S4760) in assay buffer was added to each well and kinetic measurement of absorbance at 405 nm (Tecan Spark Plate Reader, Zürich, Switzerland) was undertaken for 30 min. […] Dilutions of each inhibitor were prepared in triplicate and preincubated with 5 µg of chymotrypsin for 10 min at 37 °C in a total reaction volume of 75 µL. After preincubation, 25 µL of 2 mM N-succinyl-Gly-Gly-Phe-p-nitroanilide (Sigma, S1899) was added to each well and kinetic measurement of absorbance at 405 nm was undertaken for 30 min. Inhibitory activity was determined by comparison of the slope of the reaction curve for multiple dilutions of the inhibitor to that of an equivalent solvent control and expressed as IC50 ± standard deviation.

[3] = target: T4, α-chymotrypsin from bovine pancreas (Bos taurus, UniProt P00766); experiment: Serine protease assay, chymotrypsin; type: biochemical; settings: for remaining activity at 10 µM / % enzyme activity @ 10 µM, chymotrypsin: remaining enzyme activity; for IC50: IC50 ± standard deviation
T4 construct: α-chymotrypsin from bovine pancreas (Sigma, C4129); purchased Sigma C4129; host or cells: bovine pancreas
Method: as §1

SARS-CoV-2 3CLpro [4] = target: T2, SARS-CoV-2 3CLpro; settings: cited from earlier work; for inhibition of SARS-CoV-2 3CLPro: ref [33]
P. falciparum 3D7 = experiment: Antiplasmodial image-based assay, 3D7 strain; type: cell-based, Plasmodium falciparum; settings: chloroquine-sensitive P. falciparum strain 3D7
Method: (§2) An anti-plasmodial imaging assay reported by Duffy and Avery was used to examine the antiplasmodial activities of synthetic indoles 25, 26, 36, 37, 38, 40, 41, 43, 45, 46, 47, 48, 50 and 51. All compounds were diluted to […] in DMSO and tested at three increasing concentrations from 0.4 nM–40 μM per log dose in a 16-point CRC ([…]) parasite strains of Plasmodium falciparum. […] Normalised percent inhibition data was obtained using in-plate positive (4 μM DHA) and negative (0.4% DMSO) controls, which were then used to calculate IC50 values. Compounds were incubated in CellCarrier-384 well imaging plates in the presence of 2% parasitemia (3D7 or Dd2) at 0.3% hematocrit in a total assay volume of 50 μL for 72 h at 37 °C, 5% O2, 5% CO2 and 90% N2. After incubation, plates were stained with 4′,6-diamidino-2-phenylindole (DAPI) and imaged using an Opera Phenix high-content imaging system (Revvity, Mulgrave, Victoria, Australia). Images were analysed using Harmony (Revvity) software (version 3), while percent parasite inhibition was calculated using the minimum (0.4% DMSO) and (DHA). IC50 values were determined by plotting % inhibition against log dose and analysed using nonlinear regression and sigmoidal dose-response using GraphPad Prism version 6.

P. falciparum Dd2 = experiment: Antiplasmodial image-based assay, Dd2 strain; type: cell-based, Plasmodium falciparum; settings: chloroquine-resistant P. falciparum strain Dd2
Method: as §2

HEK293 cells = experiment: HEK293 cell cytotoxicity; type: cell-based; settings: 60 µM, human embryonic kidney cell line
HIV-1 = system: HIV-1; design: method as in PMID 34095843, PMID 30940396; settings: ref [34],[35]; cited from earlier work
elastase = system: elastase; design: method as in PMID 37609780; settings: ref [36]; cited from earlier work
prion = settings: cited from earlier work

T3 sequence (P00772 27-266): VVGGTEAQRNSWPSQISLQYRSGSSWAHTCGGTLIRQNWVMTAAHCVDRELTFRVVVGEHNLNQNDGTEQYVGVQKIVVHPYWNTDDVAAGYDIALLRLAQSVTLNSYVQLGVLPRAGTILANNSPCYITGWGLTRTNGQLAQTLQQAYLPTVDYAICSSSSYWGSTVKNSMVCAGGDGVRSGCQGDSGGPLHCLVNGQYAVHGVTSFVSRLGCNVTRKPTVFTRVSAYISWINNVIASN

For `CO[C@@H]1[C@H](NC(=O)C(=O)c2c[nH]c3ccccc23)C[C@H]2O[C@]1(C)n1c3ccccc3c3c4c(c5c6ccccc6n2c5c31)C(=O)NC4` [Compound 13, 13G-291], the “protein kinase C inhibition” value (protein kinase C) is listed as “only weak inhibition”.

For `O=C(N[C@@H](CSSC[C@H](NC(=O)C(=O)c1c[nH]c2cc(Br)ccc12)C(=O)O)C(=O)O)C(=O)c1c[nH]c2cc(Br)ccc12` [Compound 34, 6-bromoindolyl-3-glyoxyl-L-cystine], the “binding with α-syn (protein-ligand complexes in MS)” value (“binding with α-syn” for short) (α-synuclein) was “α-syn binding displayed”, the inhibition at 20 µM (SARS-CoV-2 3CLpro [1]; 20 µM, no DTT, read-out: % inhibition @ 20 µM, No DTT) was 86.1% and the inhibition at 20 µM (SARS-CoV-2 3CLpro [1]; 20 µM, with DTT (4 mM), read-out: % inhibition @ 20 µM, DTT) was 4.6%. It also gave an IC50 (SARS-CoV-2 3CLpro [1]; no DTT) of 6.4 µM, a remaining activity at 10 µM [2] of 93.5% and a remaining activity at 10 µM [3] of 93.1%.

In the case of `O=C[C@H](C[C@@H]1CCNC1=O)NC(=O)[C@H](Cc1cccc(F)c1)NC(=O)c1cc2ccccc2[nH]1` [Compound 63], the “inhibition of SARS-CoV-2 3CLPro” value (SARS-CoV-2 3CLpro [4]) is given as “nanomolar inhibition”.

With `O=C(N[C@@H](Cc1ccc(O)cc1)C(=O)O)C(=O)c1c[nH]c2cc(Br)ccc12` [Compound 51, 6-bromoindolyl-3-glyoxyl-L-tyrosine] the “binding with α-syn” value (α-synuclein) was “α-syn binding displayed”, the “% Inhibition @ 60 µM, 3D7” value (P. falciparum 3D7; 60 µM, 72 h) was 58.0% and the “% Inhibition @ 60 µM, Dd2” value (P. falciparum Dd2; 60 µM, 72 h) was 56.0%. For the same molecule, the “% Inhibition @ 60 µM, HEK293” value (HEK293 cells) was 21.5%, the “% inhibition @ 20 µM, No DTT” value (SARS-CoV-2 3CLpro [1]; 20 µM, no DTT) was 23.3% and the “% inhibition @ 20 µM, DTT” value (SARS-CoV-2 3CLpro [1]; 20 µM, with DTT (4 mM)) was 6.9%. The “% enzyme activity @ 10 µM, elastase” value [2] was 100.3% and the “% enzyme activity @ 10 µM, chymotrypsin” value [3] was 91.8%.

In the case of `C[C@@H]1CN(C(=O)c2ccccc2)CCN1C(=O)C(=O)c1c[nH]c2ccccc12` [Compound 65], the “inhibition of HIV-1” value (HIV-1) is given as “nanomolar inhibition”.

With `O=C(N[C@H](Cc1c[nH]c2ccccc12)C(=O)O)C(=O)c1c[nH]c2ccc(Br)cc12` [Compound 46, 5-bromoindolyl-3-glyoxyl-D-tryptophan] the “binding with α-syn” value (α-synuclein) was “α-syn binding displayed”, the inhibition at 60 µM (P. falciparum 3D7; Plasmodium falciparum, 3D7, 72 h, 60 µM, 72 h) was roughly 100% and the IC50 (P. falciparum 3D7; Plasmodium falciparum) was 7.4 µM. The “% Inhibition @ 60 µM, Dd2” value (P. falciparum Dd2; 60 µM, 72 h) was 97.5%, the inhibition at 60 µM (P. falciparum Dd2; Plasmodium falciparum, DD2, 72 h, 60 µM, 72 h) was roughly 100% and the IC50 (P. falciparum Dd2; Plasmodium falciparum) was 8.2 µM. The inhibition at 60 µM (HEK293 cells; HEK293) was 21.5%, the inhibition at 20 µM (SARS-CoV-2 3CLpro [1]; read-out: % inhibition @ 20 µM, DTT) was 2.5% and the inhibition at 20 µM (SARS-CoV-2 3CLpro [1]; read-out: % inhibition @ 20 µM, No DTT) was 27.4%. The remaining activity at 10 µM [2] was 90.9%, the remaining activity at 10 µM [3] was 47.7% and the IC50 [3] was 6.3 µM.

In the case of `CC[C@H](C)[C@@H]1NC(=O)[C@H](CC(C)C)NC(=O)[C@@H](N2C(=O)N[C@@H](C)C2=O)CNC(=O)[C@H](CS(=O)(=O)O)NC(=O)/C=C/c2csc(n2)[C@H](Cc2ccc(O)cc2)NC(=O)C1=O` [Compound 66, cyclotheonellazole D], the “change of SARS-CoV-2 3CLPro inhibition in the presence of DTT” value (SARS-CoV-2 3CLpro [4]; DTT (4 mM) versus no DTT, ref [36]) is listed as “more than eightfold reduction” and the “elastase inhibition” value (elastase) is listed as “nanomolar potent inhibitor”.

For `O=C(N[C@@H](Cc1c[nH]c2ccccc12)C(=O)O)C(=O)c1c[nH]c2ccc(Br)cc12` [Compound 45, 5-bromoindolyl-3-glyoxyl-L-tryptophan], the “binding with α-syn” value (α-synuclein) was “α-syn binding displayed”, the “% Inhibition @ 60 µM, 3D7” value (P. falciparum 3D7; 60 µM, 72 h) was 73.0% and the “% Inhibition @ 60 µM, Dd2” value (P. falciparum Dd2; 60 µM, 72 h) was 56.0%. For the same molecule, the “% Inhibition @ 60 µM, HEK293” value (HEK293 cells) was 24.0%, the “% inhibition @ 20 µM, No DTT” value (SARS-CoV-2 3CLpro [1]; 20 µM, no DTT) was 21.8% and the “% inhibition @ 20 µM, DTT” value (SARS-CoV-2 3CLpro [1]; 20 µM, with DTT (4 mM)) was 3.7%. The “% enzyme activity @ 10 µM, elastase” value [2] was 94.0%, the “% enzyme activity @ 10 µM, chymotrypsin” value [3] was 69.2% and the IC50 [3] was 16.3 µM.

For `O=C[C@H](C[C@@H]1CCNC1=O)NC(=O)[C@H](CC1CCCCC1)NC(=O)c1cc2ccccc2[nH]1` [Compound 62], the “inhibition of SARS-CoV-2 3CLPro” value (SARS-CoV-2 3CLpro [4]) is listed as “nanomolar inhibition”.

In the case of `O=C(C(=O)N1CCN(C(=O)c2ccccc2)CC1)c1c[nH]c2ccccc12` [Compound 64], the “inhibition of HIV-1” value (HIV-1) is listed as “nanomolar inhibition”.

With `O=C(N[C@H](Cc1ccc(O)cc1)C(=O)O)C(=O)c1c[nH]c2ccc(Br)cc12` [Compound 50, 5-bromoindolyl-3-glyoxyl-D-tyrosine] the “% Inhibition @ 60 µM, 3D7” value (P. falciparum 3D7; 60 µM, 72 h) was 99.0%, the “% Inhibition @ 60 µM, Dd2” value (P. falciparum Dd2; 60 µM, 72 h) was 97.5% and the “% Inhibition @ 60 µM, HEK293” value (HEK293 cells) was 20.5%. For the same molecule, the “% inhibition @ 20 µM, No DTT” value (SARS-CoV-2 3CLpro [1]; 20 µM, no DTT) was 6.1%, the “% inhibition @ 20 µM, DTT” value (SARS-CoV-2 3CLpro [1]; 20 µM, with DTT (4 mM)) was 0.9% and the “% enzyme activity @ 10 µM, elastase” value [2] was 95.3%. The “% enzyme activity @ 10 µM, chymotrypsin” value [3] was 89.2%.

For `O=C(N[C@H](Cc1ccc(O)cc1)C(=O)O)C(=O)c1c[nH]c2cc(Br)ccc12` [Compound 52, 6-bromoindolyl-3-glyoxyl-D-tyrosine], the “binding with α-syn” value (α-synuclein) was “α-syn binding displayed”, the “% inhibition @ 20 µM, No DTT” value (SARS-CoV-2 3CLpro [1]; 20 µM, no DTT) was 14.0% and the “% inhibition @ 20 µM, DTT” value (SARS-CoV-2 3CLpro [1]; 20 µM, with DTT (4 mM)) was 4.9%. The “% enzyme activity @ 10 µM, elastase” value [2] was 97.1% and the “% enzyme activity @ 10 µM, chymotrypsin” value [3] was 97.2%.

In the case of `O=C(N[C@@H](Cc1c[nH]c2ccccc12)C(=O)O)C(=O)c1c[nH]c2cc(Br)ccc12` [Compound 47, 6-bromoindolyl-3-glyoxyl-L-tryptophan], the “% Inhibition @ 60 µM, 3D7” value (P. falciparum 3D7; 60 µM, 72 h) is reported as 14.0%, the “% Inhibition @ 60 µM, Dd2” value (P. falciparum Dd2; 60 µM, 72 h) is reported as 20.0% and the “% Inhibition @ 60 µM, HEK293” value (HEK293 cells) is reported as 14.0%. The “% inhibition @ 20 µM, No DTT” value (SARS-CoV-2 3CLpro [1]; 20 µM, no DTT) was 24.4%, the “% inhibition @ 20 µM, DTT” value (SARS-CoV-2 3CLpro [1]; 20 µM, with DTT (4 mM)) was 4.1% and the “% enzyme activity @ 10 µM, elastase” value [2] was 89.5%. The “% enzyme activity @ 10 µM, chymotrypsin” value [3] was 99.6%.

For purealidine Q, the “anti-prion activity in a yeast-based assay” value (prion) is listed as “micromolar anti-prion activities”.

For `COc1ccc(C/C(=N\O)C(=O)NCCc2cc(Br)c(OCCCN(C)C)c(Br)c2)cc1Br` [Compound 57, aplysamine-2], the “anti-prion activity in a yeast-based assay” value (prion; ref [25]) is given as “micromolar anti-prion activities”.
